Measurements as given in PubChem BioAssay AID328 (DTP/NCI, 2004).
Several values for one entry are separate records, joined by “and”; a condition that tells them apart may be missing. Equal entries are not always repeated. Toxic doses and inconclusive results are not listed.

System: BDF1 mice, P388 leukemia ip, median survival T/C
Assay: NCI In Vivo Anticancer Drug Screen. Data for tumor model P388 Leukemia (intraperitoneal) in B6D2F1 (BDF1) mice
Conditions: endpoint: median survival time, higher = longer survival
How it was run: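 Survival ratio, drug arm over vehicle arm, in mice with a transplanted tumour.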

[1] = dose: 6.25 mg/kg/injection, schedule: Q01DX009 (ip), vehicle: saline with Tween-80
[2] = dose: 12.5 mg/kg/injection, schedule: Q01DX009 (ip), vehicle: saline with Tween-80
[3] = dose: 25.0 mg/kg/injection, schedule: Q01DX009 (ip), vehicle: saline with Tween-80
[4] = dose: 50.0 mg/kg/injection, schedule: Q01DX009 (ip), vehicle: saline with Tween-80
[5] = dose: 100.0 mg/kg/injection, schedule: Q01DX009 (ip), vehicle: saline with Tween-80
[6] = dose: 200.0 mg/kg/injection, schedule: Q01DX009 (ip), vehicle: saline with Tween-80
[7] = dose: 100.0 mg/kg/injection, schedule: Q01DX009 (ip), vehicle: Klucel (hydroxypropylcellulose) (HPC)
[8] = dose: 100.0 mg/kg/injection, schedule: Q04DX003 (ip), vehicle: saline with Tween-80
[9] = dose: 200.0 mg/kg/injection, schedule: Q04DX003 (ip), vehicle: saline with Tween-80
[10] = dose: 50.0 mg/kg/injection, schedule: Q04DX003 (ip), vehicle: saline with Tween-80

`O=[N+]([O-])c1cc([N+](=O)[O-])c2ccc(S(=O)(=O)O)cc2c1O` was tested, and the T/C (dose: 6.25 mg/kg/injection, schedule: Q04DX002 (ip), vehicle: saline) was 106 % of control, the T/C (dose: 12.5 mg/kg/injection, schedule: Q04DX002 (ip), vehicle: saline) was 101 % of control and the T/C (dose: 25.0 mg/kg/injection, schedule: Q04DX002 (ip), vehicle: saline) was 105 % of control.

For `CCN(CC)c1ccc2c(C)cc(=O)oc2c1`, the T/C [1] was 100 % of control, the T/C [2] was 94 % of control and the T/C [3] was 94 % of control. For the same molecule, the T/C [4] was 94 % of control, the T/C [5] was 92 % of control and the T/C [6] was 94 % of control.

In the case of `O=c1[nH]cc(F)c(=O)[nH]1.[Tl]`, the T/C (dose: 6.25 mg/kg/injection, schedule: Q01DX009 (ip), vehicle: Klucel (hydroxypropylcellulose) (HPC)) is reported as 117 % of control, the T/C (dose: 12.5 mg/kg/injection, schedule: Q01DX009 (ip), vehicle: Klucel (hydroxypropylcellulose) (HPC)) is reported as 102 % of control and 110 % of control and the T/C (dose: 25.0 mg/kg/injection, schedule: Q01DX009 (ip), vehicle: Klucel (hydroxypropylcellulose) (HPC)) is reported as 87 % of control. The T/C [7] was 91 % of control.

With `O=[N+]([O-])/C=C/c1c(Cl)cccc1Cl` the T/C (dose: 50.0 mg/kg/injection, schedule: Q04DX003 (ip), vehicle: other) was 122 % of control.

`C=CCOC(=O)C1c2ccccc2Cc2ccccc21` was tested, and the T/C [5] was 110 % of control, the T/C [8] was 100 % of control and the T/C [6] was 115 % of control. The T/C [9] was 100 % of control, the T/C (dose: 400.0 mg/kg/injection, schedule: Q01DX009 (ip), vehicle: saline with Tween-80) was 110 % of control and the T/C (dose: 400.0 mg/kg/injection, schedule: Q04DX003 (ip), vehicle: saline with Tween-80) was 109 % of control.

With `CCCC(O)Cc1c[nH]c(=O)[nH]c1=O` (stereo not drawn) the T/C [1] was 101 % of control, the T/C [2] was 92 % of control and the T/C (dose: 12.5 mg/kg/injection, schedule: Q04DX003 (ip), vehicle: saline with Tween-80) was 101 % of control. For the same molecule, the T/C [3] was 106 % of control, the T/C (dose: 25.0 mg/kg/injection, schedule: Q04DX003 (ip), vehicle: saline with Tween-80) was 104 % of control and the T/C [4] was 93 % of control. The T/C [10] was 100 % of control.

For `O=C(NCCCl)NC1c2ccccc2CCc2ccccc21`, the T/C (dose: 50.0 mg/kg/injection, schedule: Q01DX009 (ip), vehicle: Klucel (hydroxypropylcellulose) (HPC)) was 105 % of control, the T/C [7] was 105 % of control and the T/C (dose: 100.0 mg/kg/injection, schedule: Q04DX003 (ip), vehicle: Klucel (hydroxypropylcellulose) (HPC)) was 95 % of control. For the same molecule, the T/C (dose: 200.0 mg/kg/injection, schedule: Q01DX009 (ip), vehicle: Klucel (hydroxypropylcellulose) (HPC)) was 100 % of control and the T/C (dose: 200.0 mg/kg/injection, schedule: Q04DX003 (ip), vehicle: Klucel (hydroxypropylcellulose) (HPC)) was 90 % of control.

For `CN1CCN(CCCN2c3ccccc3Sc3ccc(C(F)(F)F)cc32)CC1`, the T/C (dose: 6.25 mg/kg/injection, schedule: Q01DX009 (ip), vehicle: saline) was 109 % of control, the T/C (dose: 9.37 mg/kg/injection, schedule: Q01DX009 (ip), vehicle: saline) was 118 % of control and the T/C (dose: 9.37 mg/kg/injection, schedule: Q04DX003 (ip), vehicle: saline with Tween-80) was 117 % of control. The T/C (dose: 12.5 mg/kg/injection, schedule: Q01DX009 (ip), vehicle: saline) was 109 % of control and 118 % of control, the T/C (dose: 18.75 mg/kg/injection, schedule: Q04DX003 (ip), vehicle: saline with Tween-80) was 121 % of control and the T/C (dose: 44.0 mg/kg/injection, schedule: Q01DX009 (ip), vehicle: saline with Tween-80) was 107 % of control. For the same molecule, the T/C [10] was 113 % of control, the T/C (dose: 75.0 mg/kg/injection, schedule: Q04DX003 (ip), vehicle: saline) was 115 % of control and the T/C [8] was 150 % of control and 163 % of control.

In the case of `COC(=O)C(CSCSCc1ccccc1)NC(=O)C(CSCc1ccccc1)NC(=O)CCNC(=O)OCc1ccccc1` (stereo not drawn), the T/C (dose: 1.56 mg/kg/injection, schedule: Q04DX003 (ip), vehicle: Klucel (hydroxypropylcellulose) (HPC)) is reported as 101 % of control, the T/C (dose: 3.13 mg/kg/injection, schedule: Q04DX003 (ip), vehicle: Klucel (hydroxypropylcellulose) (HPC)) is reported as 120 % of control and the T/C (dose: 12.5 mg/kg/injection, schedule: Q04DX003 (ip), vehicle: Klucel (hydroxypropylcellulose) (HPC)) is reported as 101 % of control. For the same molecule, the T/C (dose: 25.0 mg/kg/injection, schedule: Q04DX003 (ip), vehicle: Klucel (hydroxypropylcellulose) (HPC)) was 111 % of control.

For `CCOCCOCCOc1nc(F)c(Cl)cc1Cl`, the T/C [8] was 100 % of control and the T/C [9] was 118 % of control.

For `O=[N+]([O-])c1cccc2c[n+](Cc3ccccc3)ccc12`, the T/C [2] was 117 % of control.
